pEC50: −log10 of the molar value.
What was measured:
[1] = target: T1, CFTR ΔF508 mutant (Homo sapiens, UniProt P13569, DEL508-508); assay: YFP-halide influx assay for the CFTR-ΔF508 mutation (CFBE41o- cells); assay type: cell-based; conditions: forskolin 10.67 μM; for pEC50: from (1−F/F0) vs concentration plot
T1 construct: expressed in transfected cells; host or cells: CFBE41o- cells, adenoviral transduction
Summary of the method: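 EC50 derived from plotting 1−F/F0 (fluorescence 36 s after iodide injection over pre-injection value) against compound concentration. Cells: CFBE41o- transduced with ΔF508-CFTR and YFP quench reporter, corrected 24 h at 27° C or by a CFTR modulator at 37° C.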

[2] = target: T2, CFTR G551D mutant (Homo sapiens, UniProt P13569, G551D); assay: YFP-halide influx assay for the CFTR-G551D mutation (HEK293 cells); assay type: cell-based; conditions: forskolin 10.67 μM
T2 construct: expressed in transfected cells; host or cells: HEK293 cells, reverse transfection with plasmids
T2 sequence (P13569 whole entry G551D): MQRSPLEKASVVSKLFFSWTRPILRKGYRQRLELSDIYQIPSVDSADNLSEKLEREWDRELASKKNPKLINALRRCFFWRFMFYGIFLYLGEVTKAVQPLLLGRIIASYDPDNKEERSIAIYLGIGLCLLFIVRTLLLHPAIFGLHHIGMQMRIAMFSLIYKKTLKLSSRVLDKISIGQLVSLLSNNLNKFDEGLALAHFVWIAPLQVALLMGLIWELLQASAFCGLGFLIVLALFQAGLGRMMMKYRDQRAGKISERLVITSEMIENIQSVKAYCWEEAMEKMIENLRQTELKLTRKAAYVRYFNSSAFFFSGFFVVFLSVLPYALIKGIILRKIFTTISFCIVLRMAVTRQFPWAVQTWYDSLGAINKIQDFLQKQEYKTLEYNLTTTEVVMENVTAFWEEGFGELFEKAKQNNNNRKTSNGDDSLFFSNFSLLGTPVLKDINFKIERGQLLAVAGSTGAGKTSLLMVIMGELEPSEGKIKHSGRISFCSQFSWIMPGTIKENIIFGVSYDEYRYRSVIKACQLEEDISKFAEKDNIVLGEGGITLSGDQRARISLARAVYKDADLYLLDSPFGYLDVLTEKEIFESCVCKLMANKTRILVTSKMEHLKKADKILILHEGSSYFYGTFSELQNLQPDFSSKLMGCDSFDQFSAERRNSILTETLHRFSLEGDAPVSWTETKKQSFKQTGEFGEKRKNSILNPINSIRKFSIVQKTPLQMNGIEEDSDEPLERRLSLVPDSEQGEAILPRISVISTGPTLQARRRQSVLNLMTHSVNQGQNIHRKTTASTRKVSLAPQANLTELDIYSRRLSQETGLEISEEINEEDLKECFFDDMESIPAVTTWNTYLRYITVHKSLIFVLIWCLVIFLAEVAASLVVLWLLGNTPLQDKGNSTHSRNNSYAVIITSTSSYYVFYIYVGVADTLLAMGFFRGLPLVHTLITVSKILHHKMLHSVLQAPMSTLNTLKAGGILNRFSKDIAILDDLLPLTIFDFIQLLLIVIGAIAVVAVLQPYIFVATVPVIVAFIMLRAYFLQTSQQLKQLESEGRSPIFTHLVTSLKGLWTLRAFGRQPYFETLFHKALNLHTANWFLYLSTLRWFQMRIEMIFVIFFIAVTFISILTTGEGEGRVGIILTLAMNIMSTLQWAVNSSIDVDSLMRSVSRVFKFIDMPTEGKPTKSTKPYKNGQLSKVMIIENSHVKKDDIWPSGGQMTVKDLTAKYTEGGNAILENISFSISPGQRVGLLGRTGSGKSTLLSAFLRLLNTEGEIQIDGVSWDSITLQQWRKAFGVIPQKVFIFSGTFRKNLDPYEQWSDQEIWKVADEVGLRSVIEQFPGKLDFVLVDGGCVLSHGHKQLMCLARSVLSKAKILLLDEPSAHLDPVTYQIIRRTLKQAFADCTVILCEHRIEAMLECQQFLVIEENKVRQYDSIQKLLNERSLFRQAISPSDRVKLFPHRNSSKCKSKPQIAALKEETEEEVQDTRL
Summary of the method: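 Channel opening read as I⁻-driven quenching of a YFP H148Q/I152L/F47L reporter over 7 s post-injection, expressed as 1−F/F0 and fitted against concentration for EC50. Cells were HEK293 co-transfected at seeding with G551D CFTR plus reporter, then grown 24 h at 37 °C, 5% CO2.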

T1 sequence (P13569 with tags, fused parts or gaps DEL508-508): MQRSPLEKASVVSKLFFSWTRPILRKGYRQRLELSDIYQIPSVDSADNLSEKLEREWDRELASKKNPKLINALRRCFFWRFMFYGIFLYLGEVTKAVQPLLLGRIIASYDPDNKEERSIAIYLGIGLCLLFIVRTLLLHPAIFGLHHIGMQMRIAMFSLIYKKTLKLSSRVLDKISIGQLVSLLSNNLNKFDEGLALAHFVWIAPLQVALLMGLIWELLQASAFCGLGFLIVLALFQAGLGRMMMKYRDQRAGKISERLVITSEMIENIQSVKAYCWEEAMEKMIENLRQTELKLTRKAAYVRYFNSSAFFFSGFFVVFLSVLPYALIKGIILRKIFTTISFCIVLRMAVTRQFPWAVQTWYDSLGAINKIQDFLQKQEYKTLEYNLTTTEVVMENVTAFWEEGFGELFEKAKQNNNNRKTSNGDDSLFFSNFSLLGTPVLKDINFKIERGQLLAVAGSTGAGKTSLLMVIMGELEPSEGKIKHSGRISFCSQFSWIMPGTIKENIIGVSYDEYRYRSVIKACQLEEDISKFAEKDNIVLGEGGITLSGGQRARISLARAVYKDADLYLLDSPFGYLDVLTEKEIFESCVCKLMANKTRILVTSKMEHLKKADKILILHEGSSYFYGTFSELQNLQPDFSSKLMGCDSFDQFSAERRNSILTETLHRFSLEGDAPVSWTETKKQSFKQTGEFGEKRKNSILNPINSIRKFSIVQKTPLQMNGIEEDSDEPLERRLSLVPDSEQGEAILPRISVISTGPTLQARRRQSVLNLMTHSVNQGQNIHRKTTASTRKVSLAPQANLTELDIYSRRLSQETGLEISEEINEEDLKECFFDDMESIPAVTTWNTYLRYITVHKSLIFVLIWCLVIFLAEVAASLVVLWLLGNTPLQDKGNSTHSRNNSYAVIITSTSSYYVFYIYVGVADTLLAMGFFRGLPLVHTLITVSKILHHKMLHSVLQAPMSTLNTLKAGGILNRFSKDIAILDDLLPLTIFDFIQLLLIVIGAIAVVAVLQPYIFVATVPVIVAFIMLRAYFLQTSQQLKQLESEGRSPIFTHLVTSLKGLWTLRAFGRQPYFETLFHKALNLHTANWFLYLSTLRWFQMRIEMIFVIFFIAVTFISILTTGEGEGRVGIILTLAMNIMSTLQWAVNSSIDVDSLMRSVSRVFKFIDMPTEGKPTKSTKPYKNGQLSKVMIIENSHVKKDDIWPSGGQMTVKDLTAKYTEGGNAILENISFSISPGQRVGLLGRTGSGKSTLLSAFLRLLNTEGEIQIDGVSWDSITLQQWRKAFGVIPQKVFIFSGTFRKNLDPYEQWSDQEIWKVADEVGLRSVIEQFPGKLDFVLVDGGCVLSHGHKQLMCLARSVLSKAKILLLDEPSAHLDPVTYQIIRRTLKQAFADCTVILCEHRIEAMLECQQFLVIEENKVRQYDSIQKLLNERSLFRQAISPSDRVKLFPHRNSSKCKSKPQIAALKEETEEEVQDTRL

Compound: Nc1cc(S(=O)(=O)c2ccc(OC(F)(F)F)cc2F)cnc1C(=O)NC[C@H]1CCOC1 [Compound 115, 3-amino-5-{[2-fluoro-4-(trifluoromethoxy)phenyl]sulfonyl}-N-[(3R)-tetrahydrofuran-3-ylmethyl]pyridine-2-carboxamide]
- % Activation [1]: 102.3%
- pEC50 [1]: 7.46
- % Activation [2]: 40.6%
- pEC50 [2]: 6.05

Compound: Nc1cc(S(=O)(=O)c2ccc(OC(F)(F)F)cc2F)cnc1C(=O)NC[C@@H]1CCOC1 [Compound 116, 3-amino-5-{[2-fluoro-4-(trifluoromethoxy)phenyl]sulfonyl}-N-[(3S)-tetrahydrofuran-3-ylmethyl]pyridine-2-carboxamide]
- % Activation [1]: 101.1%
- pEC50 [1]: 7.56
- % Activation [2]: 50.0%
- pEC50 [2]: 5.85

Compound: Nc1cc(S(=O)(=O)c2ccc(OC(F)(F)F)cc2F)cnc1C(=O)NC[C@@H](O)C(F)(F)F [Compound 117, 3-amino-5-{[2-fluoro-4-(trifluoromethoxy)phenyl]sulfonyl}-N-[(2R)-3,3,3-trifluoro-2-hydroxypropyl]pyridine-2-carboxamide]
- % Activation [1]: 107.9%
- pEC50 [1]: 8.77
- % Activation [2]: 79.8%
- pEC50 [2]: 6.66

Compound: CO[C@H]1C[C@H](NC(=O)c2ncc(S(=O)(=O)c3ccc(OC(F)(F)F)cc3)cc2N)C1 [Compound 120, 3-amino-N-(trans-3-methoxycyclobutyl)-5-{[4-(trifluoromethoxy)phenyl]sulfonyl}pyridine-2-carboxamide]
- % Activation [1]: 96.5%
- pEC50 [1]: 7.11
- % Activation [2]: 54.0%
- pEC50 [2]: 5.95

Compound: Nc1cc(S(=O)(=O)c2ccc(OC(F)(F)F)cc2)cnc1C(=O)N1CC2(CCCOC2)C1 [Compound 121, (3-amino-5-{[4-(trifluoromethoxy)phenyl]sulfonyl}pyridin-2-yl)(6-oxa-2-azaspiro[3.5]non-2-yl)methanone]
- % Activation [1]: 102%
- pEC50 [1]: 6.95
- % Activation [2]: 88.6%
- pEC50 [2]: 5.88

Compound: Nc1cc(S(=O)(=O)c2ccc(OC(F)(F)F)cc2)cnc1C(=O)NC1CC(F)(F)C1 [Compound 122, 3-amino-N-(3,3-difluorocyclobutyl)-5-{[4-(trifluoromethoxy)phenyl]sulfonyl}pyridine-2-carboxamide]
- % Activation [1]: 83.2%
- pEC50 [1]: 7.45
- % Activation [2]: 50.9%
- pEC50 [2]: 6.37

Compound: COCCCNC(=O)c1ncc(S(=O)(=O)c2ccc(OC(F)(F)F)cc2)cc1N [Compound 123, 3-amino-N-(3-methoxypropyl)-5-{[4-(trifluoromethoxy)phenyl]sulfonyl}pyridine-2-carboxamide]
- % Activation [1]: 98.5%
- pEC50 [1]: 7.06
- % Activation [2]: 60.5%
- pEC50 [2]: 6.06

Compound: CC1(CCNC(=O)c2ncc(S(=O)(=O)c3ccc(OC(F)(F)F)cc3)cc2N)CC1 [Compound 124, 3-amino-N-[2-(1-methylcyclopropyl)ethyl]-5-{[4-(trifluoromethoxy)phenyl]sulfonyl}pyridine-2-carboxamide]
- % Activation [1]: 104.0%
- pEC50 [1]: 7.00
- % Activation [2]: 57.0%
- pEC50 [2]: 6.08

Compound: Nc1cc(S(=O)(=O)c2ccc(OC(F)(F)F)cc2)cnc1C(=O)N1CC2(CCOC2)C1 [Compound 125, (3-amino-5-{[4-(trifluoromethoxy)phenyl]sulfonyl}pyridin-2-yl)(6-oxa-2-azaspiro[3.4]oct-2-yl)methanone]
- % Activation [1]: 114.0%
- pEC50 [1]: 7.18
- % Activation [2]: 84.1%
- pEC50 [2]: 5.66

Compound: CC1CN(C(=O)c2ncc(S(=O)(=O)c3ccc(OC(F)(F)F)cc3)cc2N)C1 [Compound 126, (3-amino-5-{[4-(trifluoromethoxy)phenyl]sulfonyl}pyridin-2-yl)(3-methylazetidin-1-yl)methanone]
- % Activation [1]: 92.9%
- pEC50 [1]: 7.19
- % Activation [2]: 62.2%
- pEC50 [2]: 5.83

Compound: Nc1cc(S(=O)(=O)c2ccc(OC(F)(F)F)cc2)cnc1C(=O)NC1CCOC1 (stereo not shown) [Compound 127, 3-amino-N-(tetrahydrofuran-3-yl)-5-{[4-(trifluoromethoxy)phenyl]sulfonyl}pyridine-2-carboxamide]
- % Activation [1]: 107.0%
- pEC50 [1]: 7.08
- % Activation [2]: 61.2%
- pEC50 [2]: 5.73

Compound: Nc1cc(S(=O)(=O)c2ccc(OC(F)(F)F)cc2)cnc1C(=O)N[C@@H]1CCOC1 [Compound 128, 3-amino-N-[(3R)-tetrahydrofuran-3-yl]-5-{[4-(trifluoromethoxy)phenyl]sulfonyl}pyridine-2-carboxamide]
- % Activation [1]: 95.0%
- pEC50 [1]: 7.07
- % Activation [2]: 41.7%
- pEC50 [2]: < 5.00

Compound: Nc1cc(S(=O)(=O)c2ccc(OC(F)(F)F)cc2)cnc1C(=O)NCC1CCOCC1 [Compound 129, 3-amino-N-(tetrahydro-2H-pyran-4-ylmethyl)-5-{[4-(trifluoromethoxy)phenyl]sulfonyl}pyridine-2-carboxamide]
- % Activation [1]: 74.9%
- pEC50 [1]: 6.74
- % Activation [2]: 25.9%
- pEC50 [2]: < 5.00

Compound: Nc1cc(S(=O)(=O)c2ccc(C(F)(F)F)cc2)cnc1C(=O)NCC(O)COCC1CC1 (stereo not shown) [Compound 131, 3-amino-N-[3-(cyclopropylmethoxy)-2-hydroxypropyl]-5-{[4-(trifluoromethyl)phenyl]sulfonyl}pyridine-2-carboxamide]
- % Activation [1]: 110.2%
- pEC50 [1]: 7.89
- % Activation [2]: 68.6%
- pEC50 [2]: 6.09

Compound: Nc1cc(S(=O)(=O)c2ccc(C(F)(F)F)cc2F)cnc1C(=O)NCC(O)COCC1CC1 (stereo not shown) [Compound 132, 3-amino-N-[3-(cyclopropylmethoxy)-2-hydroxypropyl]-5-{[2-fluoro-4-(trifluoromethyl)phenyl]sulfonyl}pyridine-2-carboxamide]
- % Activation [1]: 103.5%
- pEC50 [1]: 8.29
- % Activation [2]: 79.2%
- pEC50 [2]: 6.40

Compound: CC(C)OCC(O)CNC(=O)c1ncc(S(=O)(=O)c2ccc(C(F)(F)F)cc2F)cc1N (stereo not shown) [Compound 133, 3-amino-5-{[2-fluoro-4-(trifluoromethyl)phenyl]sulfonyl}-N-[2-hydroxy-3-(propan-2-yloxy)propyl]pyridine-2-carboxamide]
- % Activation [1]: 105.9%
- pEC50 [1]: 8.43
- % Activation [2]: 84.2%
- pEC50 [2]: 6.60

Compound: CC1(C)CN(C(=O)c2ncc(S(=O)(=O)c3ccc(OC(F)(F)F)cc3F)cc2N)C1 [Compound 134, (3-amino-5-{[2-fluoro-4-(trifluoromethoxy)phenyl]sulfonyl}pyridin-2-yl)(3,3-dimethylazetidin-1-yl)methanone]
- % Activation [1]: 101.6%
- pEC50 [1]: 7.36
- % Activation [2]: 76.8%
- pEC50 [2]: 5.95

Compound: CC(C)NC(=O)CNC(=O)c1ncc(S(=O)(=O)c2ccc(OC(F)(F)F)cc2F)cc1N [Compound 135, 3-amino-5-{[2-fluoro-4-(trifluoromethoxy)phenyl]sulfonyl}-N-[2-oxo-2-(propan-2-ylamino)ethyl]pyridine-2-carboxamide]
- % Activation [1]: 108.7%
- pEC50 [1]: 8.07
- % Activation [2]: 43.5%
- pEC50 [2]: 5.24

Compound: CN(Cc1ccc(F)c(F)c1)S(=O)(=O)c1cnc(C(=O)NCC(O)C(F)(F)F)c(N)c1 (stereo not shown) [Compound 136, 3-amino-5-[(3,4-difluorobenzyl)(methyl)sulfamoyl]-N-(3,3,3-trifluoro-2-hydroxypropyl)pyridine-2-carboxamide]
- % Activation [1]: 113.7%
- pEC50 [1]: 8.54
- % Activation [2]: 53.4%
- pEC50 [2]: < 5.48

Compound: CN(Cc1ccc(F)cc1F)S(=O)(=O)c1cnc(C(=O)NCC(O)C(F)(F)F)c(N)c1 (stereo not shown) [Compound 137, 3-amino-5-[(2,4-difluorobenzyl)(methyl)sulfamoyl]-N-(3,3,3-trifluoro-2-hydroxypropyl)pyridine-2-carboxamide]
- % Activation [1]: 110.7%
- pEC50 [1]: 8.43
- % Activation [2]: 69.6%
- pEC50 [2]: 6.38

Compound: COc1ccc(CN(C)S(=O)(=O)c2cnc(C(=O)NCC(O)C(F)(F)F)c(N)c2)cc1 (stereo not shown) [Compound 138, 3-amino-5-[(4-methoxybenzyl)(methyl)sulfamoyl]-N-(3,3,3-trifluoro-2-hydroxypropyl)pyridine-2-carboxamide]
- % Activation [1]: 94.5%
- pEC50 [1]: 7.75
- % Activation [2]: 49.6%
- pEC50 [2]: 6.17

Compound: Nc1cc(S(=O)(=O)N2CCOCC2)cnc1C(=O)NCC(O)C(F)(F)F (stereo not shown) [Compound 139, 3-amino-5-(morpholin-4-ylsulfonyl)-N-(3,3,3-trifluoro-2-hydroxypropyl)pyridine-2-carboxamide]
- % Activation [1]: 96.6%
- pEC50 [1]: 7.21
- % Activation [2]: 40.6%
- pEC50 [2]: 5.24

Compound: Nc1cc(S(=O)(=O)c2ccc(OC(F)(F)F)cc2)cnc1C(=O)N[C@@H]1CCCOC1 [Compound 140, 3-amino-N-[(3R)-tetrahydro-2H-pyran-3-yl]-5-{[4-(trifluoromethoxy)phenyl]sulfonyl}pyridine-2-carboxamide]
- % Activation [1]: 97.7%
- pEC50 [1]: 7.29
- % Activation [2]: 39.9%
- pEC50 [2]: < 5.00

Compound: Nc1cc(S(=O)(=O)c2ccc(OC(F)(F)F)cc2)cnc1C(=O)NCCc1ccco1 [Compound 141, 3-amino-N-[2-(furan-2-yl)ethyl]-5-{[4-(trifluoromethoxy)phenyl]sulfonyl}pyridine-2-carboxamide]
- % Activation [1]: 100.6%
- pEC50 [1]: 6.96
- % Activation [2]: 60.4%
- pEC50 [2]: 6.10

Compound: CC[C@@H](CO)NC(=O)c1ncc(S(=O)(=O)c2ccc(OC(F)(F)F)cc2)cc1N [Compound 142, 3-amino-N-[(2S)-1-hydroxybutan-2-yl]-5-{[4-(trifluoromethoxy)phenyl]sulfonyl}pyridine-2-carboxamide]
- % Activation [1]: 97.9%
- pEC50 [1]: 7.92
- % Activation [2]: 44.7%
- pEC50 [2]: 6.40

From patent US10047051B2, “Substituted pyridines and method of use” (AbbVie S.á{acute over (.)}r.l., priority 2015, dated 2018)
